Data set [1] in a line: Concentrations in rat plasma and brain (IP1 study). The settings on record: Long-Evans, po, mean ± SD; for Kp at 2 h: brain/plasma, read-out: Kp (brain‐to‐plasma concentration ratio). The class given is in vivo. As for the experimental part: (§1) Eight‐week‐old Long‐Evans rats, 8‐ to 9‐week‐old C57BL/6J mice, and 22‐ or 29‐week‐old M1R KO mice and their WT littermates were used in this study. On the day of the experiment, animals were placed in individual cages and acclimated for more than 1 hour. A test compound or vehicle was administered 2 hours before the animals were sacrificed. […] LiCl (10 mmol/kg, s.c.) was injected 1 hour before sacrifice. In the repeated administration study, a test compound was administered to mice once daily for 13 days; on day 14, animals were treated with a test compound and LiCl (10 mmol/kg, s.c.) and then sacrificed. Animals were killed by decapitation, and blood was collected into tubes containing ethylenediaminetetraacetic acid for pharmacokinetic analysis; brains were quickly dissected, frozen on dry ice, and stored at −80°C until analysis. Brain tissues were homogenized in 19 (for rat tissues) or 39 (for mouse tissue) volumes of homogenization buffer (10 mmol/L HEPES pH 7.4, 50 mmol/L LiCl, 150 mmol/L NaCl, and 1% Triton X‐100), and the homogenate was incubated on a rotator for 1 hour, followed by centrifugation. The supernatant was diluted with 39 (for rat tissues) or 19 (for mouse tissues) volumes of dilution buffer (10 mmol/L HEPES pH 7.4, 50 mmol/L LiCl, and 150 mmol/L NaCl). IP1 and protein concentrations in the diluted supernatant were measured using IP‐One HTRF assay kit (Cisbio Bioassays) and BCA Protein Assay Kit (Thermo Fisher Scientific Inc), respectively, according to the manufacturers’ instructions. IP1 production was expressed as the ratio of IP1 to protein concentrations.

The nature of data set [2]: Concentrations in mouse plasma and brain after single and repeated treatment. The data set is classed as in vivo. The settings on record: C57BL/6J, oral, mean ± SD. As for the experimental part:
as §1

Data set [3] concerns rats pretreated with scopolamine. Briefly: Novel object recognition (NOR) test, scopolamine‐induced memory impairment. The data set is classed as in vivo, rat. Conditions: for scopolamine‐induced NDI reduction, retention trial: scopolamine 0.1 mg/kg s.c. As for the experimental part:
On Day 1, 7‐week‐old Long‐Evans rats were individually placed into the test box fabricated from polyvinyl chloride (40‐cm square with 50‐cm high walls) without any objects for 10 minutes. […] In the acquisition trial, each rat was placed in the test box containing two identical objects and allowed to explore them for 3 minutes. After an intertrial interval of 4 hours, each rat was again placed in the same test box containing one familiar and one novel objects and allowed to explore both for 3 minutes (retention trial). The behavior of each animal during the acquisition and retention trials was recorded on video, and the time spent exploring each object (licking, sniffing, or touching the object with the forepaws) was scored manually. Results were presented as novelty discrimination index (NDI) calculated as follows: the exploration time for the novel object/the exploration time for both objects × 100.

The next data set has as its target T1, human M1R (Homo sapiens, UniProt P11229).
T1 sequence (P11229 1-460): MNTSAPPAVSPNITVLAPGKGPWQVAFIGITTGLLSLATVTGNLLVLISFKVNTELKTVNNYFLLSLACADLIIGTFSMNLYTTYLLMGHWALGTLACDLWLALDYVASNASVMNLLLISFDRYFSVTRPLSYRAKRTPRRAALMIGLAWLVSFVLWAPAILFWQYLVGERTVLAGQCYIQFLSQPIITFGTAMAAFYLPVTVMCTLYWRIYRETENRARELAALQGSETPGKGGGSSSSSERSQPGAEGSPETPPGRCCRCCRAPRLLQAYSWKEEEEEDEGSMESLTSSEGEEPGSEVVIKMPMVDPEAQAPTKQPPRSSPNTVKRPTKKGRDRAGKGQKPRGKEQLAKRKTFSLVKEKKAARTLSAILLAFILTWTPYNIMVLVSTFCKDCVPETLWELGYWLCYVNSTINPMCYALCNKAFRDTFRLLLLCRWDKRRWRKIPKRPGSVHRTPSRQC
The data set is described as follows: Ca2+ mobilization assay, PAM activity (with EC20 ACh), CHO‐K1 cells. More on the design: expressed in transfected cells; host or cells: CHO-K1. The data set is classed as cell-based. How it is done:
Chinese hamster ovary (CHO)‐K1 cells expressing M1R–M5R were plated on a 96‐well black, clear bottom plate at 30 000 cells/well and incubated at 37°C in an atmosphere of 5% CO2 for 1 day. On the day of the assay, cells were incubated with calcium dye buffer (Hanks’ Balanced Salt Solution (HBSS) containing 20 mmol/L HEPES, 0.1% fatty acid‐free bovine serum albumin (BSA), 0.08% pluronic F127 (Dojindo Laboratories), 2.5 μg/mL Fluo‐4 (Dojindo Laboratories), and 1.25 mmol/L probenecid (Dojindo Laboratories)) for 30 minutes at 37°C in an atmosphere of 5% CO2 and then incubated for 30 minutes at room temperature. To measure Ca^2+ mobilization using CellLux (PerkinElmer), cells were stimulated with T‐495 or MK‐7622 (0.01‐1000 nmol/L for PAM activity; 0.3‐10 000 nmol/L for agonist activity) in assay buffer (HBSS containing 20 mmol/L HEPES and 0.1% fatty acid‐free BSA) with or without an EC20 concentration of ACh. The inflection point (IP) and EC50 values were calculated using the following equation by GraphPad Prism 5 software (GraphPad Software Inc): Y=Bottom+(Top-Bottom)/1+10^(Log IPorEC50-X×HillSlope))
where X and Y are the log concentration of a compound and the percentage of Ca^2+ response, respectively, and Top and Bottom are the upper and lower plateaus, respectively.
A general note: Calcium assays in cells follow changes in intracellular calcium, usually with a dye or a luminescent sensor.

[4] abbreviates: brain (hippocampus), rat hippocampus, 3 mg/kg p.o., read-out: Brain concentration.
Setting [5] is: brain (hippocampus), rat hippocampus, 10 mg/kg p.o., read-out: Brain concentration.
Setting [6] is: plasma, rat, 3 mg/kg p.o., n = 6, read-out: Plasma concentration.
Setting [7] is: plasma, rat, 10 mg/kg p.o., n = 6, read-out: Plasma concentration.
Setting [8] is: brain (hippocampus), 10 mg/kg, mouse hippocampus, pretreated with the compound 10 mg/kg p.o. for 13 days, 10 mg/kg p.o., read-out: Brain concentration.
[9] abbreviates: brain (hippocampus), 10 mg/kg, mouse hippocampus, vehicle-pretreated, 10 mg/kg p.o., read-out: Brain concentration.
Where [10] appears, read: brain (hippocampus), 30 mg/kg, mouse hippocampus, pretreated with the compound 10 mg/kg p.o. for 13 days, 30 mg/kg p.o., read-out: Brain concentration.
Where [11] appears, read: brain (hippocampus), 30 mg/kg, mouse hippocampus, vehicle-pretreated, 30 mg/kg p.o., read-out: Brain concentration.
Where [12] appears, read: plasma, 10 mg/kg, pretreated with the compound 10 mg/kg p.o. for 13 days, 10 mg/kg p.o., read-out: Plasma concentration.
Setting [13] is: plasma, 10 mg/kg, vehicle-pretreated, 10 mg/kg p.o., n = 10, read-out: Plasma concentration.
Setting [14] is: plasma, 30 mg/kg, pretreated with the compound 10 mg/kg p.o. for 13 days, 30 mg/kg p.o., read-out: Plasma concentration.
[15] abbreviates: plasma, 30 mg/kg, vehicle-pretreated, 30 mg/kg p.o., n = 10, read-out: Plasma concentration.

Usually EC50 stands for the concentration at which the effect is half-maximal.

Read-outs that look alike come from different tables or passages of the source.

In the case of `Cc1ccc(Cc2cc3c(=O)n([C@H]4CCCC[C@@H]4O)cnc3c3ccccc23)cn1` [MK‐7622, 3‐((1S,2S)‐2‐hydroxycyclohexyl)‐6‐((6‐methylpyridin‐3‐yl)methyl)benzo[h]quinazolin‐4(3H)‐one, reference compound], the concentration at 2 h was 14.5 ± 6.3 ng/g in data set [1] (brain (hippocampus), rat hippocampus, 1 mg/kg p.o., read-out: Brain concentration); 39.3 ± 5.6 ng/g in data set [1] (setting [4]); 220 ± 72.2 ng/g in data set [1] (setting [5]); 99.2 ng/mL in data set [1] (plasma, rat, 1 mg/kg p.o., n = 6, read-out: Plasma concentration); 218 ± 42.9 ng/mL in data set [1] (setting [6]); 944 ± 246 ng/mL in data set [1] (setting [7]). Also, the concentration at 2 h in data set [2] (setting [8]) is 126 ± 28.7 ng/g; in data set [2] (setting [9]), 137 ± 23.1 ng/g; in data set [2] (setting [10]), 813 ± 262 ng/g; in data set [2] (setting [11]), 787 ± 284 ng/g; in data set [2] (setting [12]) it was 490 ± 86.4 ng/mL; in data set [2] (setting [13]), 624 ± 61.4 ng/mL. In addition, the concentration at 2 h in data set [2] (setting [14]) was determined as 2430 ± 550 ng/mL; in data set [2] (setting [15]), 2340 ± 518 ng/mL. In addition, the Kp at 2 h is 0.14 ± 0.04 in data set [1] (rat, 1 mg/kg p.o.); 0.19 ± 0.04 in data set [1] (rat, 3 mg/kg p.o.); 0.23 ± 0.02 in data set [1] (rat, 10 mg/kg p.o.). Further, the “scopolamine‐induced NDI reduction, retention trial” value in data set [3] (1 mg/kg p.o.) is listed as “subeffective”; in data set [3] (3 mg/kg p.o.), “significantly reversed”; in data set [3] (10 mg/kg p.o.), “significantly reversed”. Besides, in data set [3] (MK‐7622 1 mg/kg + donepezil 0.1 mg/kg p.o.), the “scopolamine‐induced NDI reduction, combination with donepezil” value is “could not reverse”. This compound also had an EC50 at human M1R of 1.32 nM.

As for `Cc1c(Cc2ccc(Cl)nc2)cc2c(c1Cl)OCN([C@H]1CCC[C@@H]1O)C2=O` [T‐495, 8‐chloro‐6‐((6‐chloropyridin‐3‐yl)methyl)‐3‐((1S,2S)‐2‐hydroxycyclopentyl)‐7‐methyl‐2,3‐dihydro‐4H‐1,3‐benzoxazin‐4‐one], the concentration at 2 h in data set [1] (setting [4]) stood at 66.2 ± 18.5 ng/g; in data set [1] (setting [5]), 304 ± 82.8 ng/g; in data set [1] (brain (hippocampus), rat hippocampus, 30 mg/kg p.o., read-out: Brain concentration), 1000 ± 330 ng/g; in data set [1] (setting [6]) it was 49.6 ± 14.5 ng/mL; in data set [1] (setting [7]), 298 ± 75.2 ng/mL; in data set [1] (plasma, rat, 30 mg/kg p.o., n = 6, read-out: Plasma concentration) it was 1050 ± 358 ng/mL. Moreover, the concentration at 2 h in data set [2] (setting [8]) was determined as 879 ± 159 ng/g; in data set [2] (setting [9]), 956 ± 122 ng/g; in data set [2] (setting [10]), 4090 ± 599 ng/g; in data set [2] (setting [11]), 3650 ± 744 ng/g; in data set [2] (setting [12]), 1300 ± 338 ng/mL; in data set [2] (setting [13]), 1150 ± 215 ng/mL. Besides, the concentration at 2 h in data set [2] (setting [14]) came out at 5420 ng/mL; in data set [2] (setting [15]) it was 4890 ± 923 ng/mL. For the same compound, the Kp at 2 h in data set [1] (rat, 3 mg/kg p.o.) turned out to be 1.4 ± 0.1; in data set [1] (rat, 10 mg/kg p.o.), 1 ± 0.1; in data set [1] (rat, 30 mg/kg p.o.), 1 ± 0.1. Besides, the “scopolamine‐induced NDI reduction, retention trial” value in data set [3] (0.3 mg/kg p.o.) is on record as “subeffective”; in data set [3] (1 mg/kg p.o.), “significantly reversed”; in data set [3] (3 mg/kg p.o.), “significantly reversed”. In addition, the “scopolamine‐induced NDI reduction, combination with donepezil” value in data set [3] (T‐495 0.3 mg/kg + donepezil 0.1 mg/kg p.o.) is listed as “significantly improved”. For the same compound, the midpoint of the response on human M1R, the EC50, lay at 2.29 nM.

The values are drawn from PMC6986443, “T‐495, a novel low cooperative M1 receptor positive allosteric modulator, improves memory deficits associated with cholinergic dysfunction and is characterized by low gastrointestinal side effect risk” (Pharmacology Research & Perspectives, 2020).
